Assay results as given in patent US11618916B2, “Probe for measuring activity of Caspase-1 and composition for diagnosis of inflammatory diseases containing same” (KOREA INSTITUTE OF SCIENCE AND TECHNOLOGY, priority 2018, dated 2023).

What was measured:
Alzheimer's animal model = test: Imaging of Alzheimer's animal model; format: in vivo, B6SJL-Tg (APPSwFILon, PSEN1*M146L*L286V)6799Vas/Mmjax) mice
Method: In order to establish an Alzheimer's animal model, 3- to 6-month-old B6SJL-Tg (APPSwFILon, PSEN1*M146L*L286V)6799Vas/Mmjax) mice acquired from the […] (Bar Harbor, USA) were accustomed for a week and then reared in animal plastic cages, with 4 mice per cage. The cage was controlled with artificial lighting for 12 hours from 7 am to 7 pm, indoor temperature of 18-23° C. and 40-60% humidity. Clean water and feed were given freely. An Alzheimer's animal model was induced through genetic APP mutation. Amyloid beta, which is the cause of dementia, is accumulated from 3 months later and form aggregates 4 months later. […] A control group (pre) was not subjected to the genetic mutation.

[1] = tested on: inflammation-induced animal model; test: Detection of inflammation in LPS/ATP inflammation-induced animal model, IVIS Lumina imaging; format: in vivo, C57BL/6 mice
Method: The caspase-1 enzyme is activated due to various factors. Among them, the most representative method is to activate inflammasome by administering LPS or ATP which induces early inflammation response. In Test Example 5, it was confirmed using the probe for measuring the activity of caspase-1 of Example 4 that the administration of LPS and ATP induced the activation of inflammasome, which is an early inflammation response. In this test example, an experiment was carried out using an inflammation-induced animal model in order to investigate whether the probe for measuring the activity of caspase-1 of Example 4 works well in vivo, too. In order to establish the inflammation-induced animal model, 8-week-old C57BL/6 mice acquired from Nara Bio were accustomed for a week and then reared in animal plastic cages, with 4 mice per cage. The cage was controlled with artificial lighting for 12 hours from 7 am to […], indoor temperature of 18-23° C. and 40-60% humidity. Clean water and feed were given freely. Then, physiological saline (control group), 20 μg of LPS and 50 mM ATP (Ms1 test group) or 20 μg of LPS and 100 mM ATP (Ms2 test group) was injected into the left sole of the experimental animal. After intravenously injecting the probe for measuring the activity of caspase-1 prepared in Example 4 with 3-day intervals, the respective groups were imaged with IVIS Lumina with 30-minute intervals.

caspase-1 enzyme [2] = molecular target: T1, caspase-1 enzyme (Homo sapiens, UniProt P29466); test: Fluorescence restoration depending on caspase-1 enzyme concentration; format: biochemical; conditions: FIG. 3B
T1 sequence (P29466 120-297 limits assumed): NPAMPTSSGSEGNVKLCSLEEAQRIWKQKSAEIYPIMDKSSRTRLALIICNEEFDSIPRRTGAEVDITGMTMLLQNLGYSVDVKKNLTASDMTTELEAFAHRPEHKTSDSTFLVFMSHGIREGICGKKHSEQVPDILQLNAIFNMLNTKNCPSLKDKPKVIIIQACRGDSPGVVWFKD
T1 sequence (P29466 317-404 limits assumed): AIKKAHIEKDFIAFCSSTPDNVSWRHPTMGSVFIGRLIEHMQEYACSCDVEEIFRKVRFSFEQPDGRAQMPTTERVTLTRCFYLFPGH
Method: In order to investigate the fluorescence of the probe for measuring the activity of caspase-1 prepared in Example 4 depending on the concentration of the caspase-1 enzyme, the change in fluorescence with time was analyzed and evaluated using the caspase-1 enzyme at various concentrations (0, 2.5, 5, 7.5 and 10 units).
First, the caspase enzyme of various concentrations (0, 2.5, 5, 7.5 and 10 units) was dissolved in a reaction buffer (0.5 mM HEPES, pH 7.2, 50 mM calcium chloride, 0.1% CHAPS, 10 mM EDTA, 5% glycerol, 10 mM DTT) and incubated at 37° C. for 1 hour. After transferring 200 μL of the caspase enzyme activated through the procedure to each well of a 96-well plate and then incubating with the probe for measuring the activity of caspase-1 of Example 4 at 37° C., the restoration of fluorescence with time was observed by fluorescence spectroscopy.
The fluorescence image for each reaction solution is shown at the bottom of FIG. 3B.

caspase-1 enzyme [3] = molecular target: T1, caspase-1 enzyme; test: Specific activity of probe: fluorescence restoration with caspase enzymes (caspase-1, 3, 8, 11) or caspase-1 inhibitor; format: biochemical; conditions: caspase-1, 3, 8, 11 at 2 units or caspase-1 inhibitor; 37° C.; FIG. 3A
Method: In order to investigate whether the probe for measuring the activity of caspase-1 prepared in Example 4 is specifically cleaved by the caspase-1 enzyme and restores fluorescence, the change in fluorescence with time was analyzed and evaluated using various caspase enzymes (caspase-1, 3, 8 and 11) and a caspase-1 inhibitor.
First, a caspase enzyme or a caspase-1 inhibitor was dissolved in a reaction buffer (0.5 mM HEPES, pH 7.2, 50 mM calcium chloride, 0.1% CHAPS, 10 mM EDTA, 5% glycerol, 10 mM DTT) and then incubated at 37° C. for 1 hour. All the enzymes were used at the same concentration of 2 units. After transferring 200 μL of the caspase enzyme activated through the procedure to each well of a 96-well plate and then incubating with the probe for measuring the activity of caspase-1 of Example 4 at 37° C., the restoration of fluorescence with time was observed by fluorescence spectroscopy.
The photographs at the bottom of FIG. 3A show the fluorescence images of the respective reaction solutions. (+)Cas-1 was treated with the caspase-1 enzyme, (+)cas-1 inhibitor was treated with the caspase-1 inhibitor, (+)cas-3 was treated with the caspase-3 enzyme, (+)cas-8 was treated with the caspase-8 enzyme, and (+)cas-11 was treated with the caspase-11 enzyme.

[4] = tested on: colitis animal model (DSS); test: Imaging of DSS colitis animal model; format: in vivo, C57BL/6 mice; conditions: DSS vs normal
Method: In order to establish a colitis animal model, 8-week-old C57BL/6 mice acquired from Nara Bio were accustomed for a week and then reared in animal plastic cages, with 4 mice per cage. The cage was controlled with artificial lighting for 12 hours from 7 am to 7 pm, indoor temperature of 18-23° C. and 40-60% humidity. Clean water and feed were given freely. Colitis was induced by providing the experimental animal with drinking water containing 3% dextran sodium sulfate (DSS). […] Because the body weight of the colitis animal model decreases proportionally to the progress of the disease, the probe for measuring the activity of caspase-1 of Example 4 was administered on day 6, when the body weight was decreased to 80%, for imaging. As a control group (normal), a non-colitis-induced group was prepared by providing normal drinking water to the experimental animal.

THP-1 monocytes = test: Fluorescence restoration in LPS/ATP-treated cells, fluorescence microscope; format: cell-based; conditions: THP-1 treated with 1.5 μg/mL LPS and 5 mM ATP, probe 3.5 hours later; vs control without LPS/ATP; FIG. 4B
Method: THP-1 monocytes were placed on a 96-well plate and treated with 1.5 μg/mL LPS and 5 mM ATP one day later. 3.5 hours later, the probe for measuring the activity of caspase-1 prepared in Example 4 was administered. Then, after culturing for 24 hours, fluorescence restoration by the probe for measuring the activity of caspase-1 in the cells was analyzed with a fluorescence microscope.
Control was treated with neither LPS nor ATP.
LPS and ATP are known to activate caspase-1. LPS is a primary signal occurring in the early stage of inflammation and ATP is a secondary signal. […] That is to say, it was confirmed that the probe for measuring the activity of caspase-1 of the present disclosure can accurately measure caspase-1 activated by inflammation response.

[5] = tested on: T2, probe for measuring the activity of caspase-1 prepared in Example 4
T2 sequence: GWEHDGK

CCN(CC)c1ccc2nc3ccc(/N=N/c4ccc(N(C)CCCC(=O)NCCCCC(NC(=O)CNC(=O)[C@H](CC(=O)O)NC(=O)[C@H](Cc5c[nH]cn5)NC(=O)[C@H](CCC(=O)O)NC(=O)[C@H](Cc5c[nH]c6ccccc56)NC(=O)CNC(=O)CCCCCCCN5/C(=C/C=C/C=C/C6=[N+](CC)c7ccc8c(S(=O)(=O)O)cc(S(=O)(=O)O)cc8c7C6(C)C)C(C)(C)c6c5ccc5c(S(=O)(=O)O)cc(S(=O)(=O)O)cc65)C(=O)O)cc4)cc3[n+](-c3ccccc3)c2c1 (stereo partly shown) [Example 4]
fluorescence images 90 minutes after intravenous injection (Alzheimer's animal model; Alzheimer's animal models of 3-6 months vs control (pre), FIG. 7A): the fluorescence could be observed in the Alzheimer's animal model from 3 months | co-localisation of probe fluorescence with caspase-1 antibody staining in brain tissue (Alzheimer's animal model; model of 3 months (TG), 3 hours after probe, FIG. 7E): corresponds exactly to the region immunologically stained with the caspase-1 antibody | fluorescence from the brain (Alzheimer's animal model; models of 3, 4, 5 and 6 months, FIG. 7B): fluorescence was observed in the brain of the Alzheimer's animal model from 4 months | fluorescence in quadrisected brain (fluorescence microscope) (Alzheimer's animal model; models of 3-6 months, FIG. 7D): the fluorescence was observed clearly in the hippocampal region of the brain | quantified fluorescence intensity from the brain (Alzheimer's animal model; vs control group (WT), FIG. 7C): significant fluorescence intensity began to be observed starting from the Alzheimer's animal model of 4 months | in-vivo fluorescence depending on the concentration of inflammation-inducing substances (images) ([1]; LPS/ATP into left sole (Ms1: 20 μg LPS + 50 mM ATP; Ms2: 20 μg LPS + 100 mM ATP), probe intravenously, FIG. 5A): the fluorescence was restored better | quantified fluorescence from the top of the left foot and the left calf ([1]; control, Ms1 and Ms2 test groups, FIG. 5B): exhibits stronger fluorescence | fluorescence from the groin, ham and lymph node ([1]; control, Ms1 and Ms2 test groups, FIG. 5C): The strongest fluorescence was observed in the ham lymph node closest to the sole | concentration limit of the caspase-1 enzyme that could be measured (caspase-1 enzyme [2]): 7.5 units | change in fluorescence intensity with caspase-1 enzyme concentration (caspase-1 enzyme [2]; caspase-1 at 0, 2.5, 5, 7.5 and 10 units, 37° C.): increase in fluorescence intensity as the concentration of the caspase-1 enzyme increases | restoration of fluorescence with time (photoluminescence), specificity among caspase enzymes (caspase-1 enzyme [3]): restores fluorescence specifically only in the presence of caspase-1 at all times | fluorescence from the extracted large intestine ([4]; FIG. 6D): Strong red fluorescence was observed in the large intestine extracted from the colitis animal model | Cy5.5 fluorescence in isolated colon cells (fluorescence microscope, NLRP3 inflammasome co-staining) ([4]; FIG. 6F): only in the colon cells isolated from the colitis animal model | whole-body fluorescence images after intravenous injection ([4]; day 6, 30-minute intervals, FIG. 6C): red fluorescence was observed clearly in the colitis animal model | fluorescence restoration in cells (THP-1 monocytes): the fluorescence of Cy5.5 was restored effectively as compared to the control group

caspase-1 enzyme
restoration of fluorescence with time by photoluminescence (PL) after cleavage of the probe [5]: restores fluorescence specifically only in the presence of caspase-1 at all times

caspase-3 enzyme
restoration of fluorescence with time by photoluminescence (PL) after cleavage of the probe [5]: restores fluorescence specifically only in the presence of caspase-1 at all times

caspase-8 enzyme
restoration of fluorescence with time by photoluminescence (PL) after cleavage of the probe [5]: restores fluorescence specifically only in the presence of caspase-1 at all times

caspase-11 enzyme
restoration of fluorescence with time by photoluminescence (PL) after cleavage of the probe [5]: restores fluorescence specifically only in the presence of caspase-1 at all times
